11 compounds from ChEMBL document CHEMBL1201862, “PubChem BioAssay data set” (2004) can be followed below.

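Values below derive from 48-hour exposures of cells grown in 96-well plates, with endpoints linearly interpolated between the two concentrations bracketing the appropriate inhibition level. The concentration for 50% growth inhibition is given as GI50.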 Activity calls are given as the source filed them. Cut-off read from the data, not from the text of the source: active = GI50 up to about 1.1 µM and inactive = higher.

Experiment in all cases: growth of human tumour cells (NCI), 48 h
In assay [1] the test system is COLO 205.
Assay [2] relates to HOP-62.
In assay [3] the test system is EKVX.
For assay [4], the system named is SNB-75.
Assay [5] has as its system KM12.
Assay [6] relates to NCI-H23.
Assay [7] deals with HOP-92.
In assay [8] the test system is MOLT-4.
Assay [9] has as its system NCI-H226.
Assay [10] concerns SN12C.
Assay [11] has as its system CCRF-CEM.
For assay [12], the system named is OVCAR-8.
Assay [13] relates to HCT-116.
Assay [14] concerns LOX IMVI.
Assay [15] relates to A498.
Assay [16] has as its system NCI-H522.
Assay [17] relates to Malme-3M.
Assay [18] concerns OVCAR-4.
The subject of assay [19] is SK-MEL-5.
Assay [20] deals with MCF7.

Regarding `C=C1C(O)C2(O)OCC34C(CC5C(C)=CC(=O)C(O)C5(C)C23)OC(=O)C(OC(=O)C/C=C/CCCCCCCC)C14` (stereo unspecified), the GI50 in [1] is 0.0241 µM (active); in assay [2] it was 0.0233 µM (active); in assay [3] it was 0.02 µM (active); in assay [4] it was 0.0228 µM (active); in [5] it was 0.0294 µM (active); in [6] it was 0.02 µM (active). In addition, the GI50 in [7] is 0.02 µM (active); in [8], 0.02 µM (active); in [9], 0.02 µM (active); in [10], 0.0275 µM (active); in assay [11], 0.02 µM (active); in assay [12], 0.02 µM (active). Moreover, the GI50 was 0.02 µM (active) in [13]; 0.0237 µM (active) in assay [14]; 0.0254 µM (active) in assay [15]; 0.02 µM (active) in assay [16]; 0.02 µM (active) in [17].

For `Cc1c(N)nc([C@H](CC(N)=O)NC[C@H](N)C(N)=O)nc1C(=O)N[C@H](C(=O)N[C@H](C)[C@@H](O)CC(=O)N[C@H](C(=O)NC(O[C@@H]1O[C@@H](C)[C@@H](N)[C@@H](O)[C@H]1O)C(O)c1nc(-c2nc(C(=O)NCCCCN)cs2)cs1)[C@@H](C)O)[C@@H](O[C@@H]1O[C@@H](CO)[C@@H](O)[C@H](O)[C@@H]1O[C@H]1O[C@H](CO)[C@@H](O)[C@H](OC(N)=O)[C@@H]1O)c1c[nH]cn1` (stereo partly specified), the GI50 was > 50 µM (inactive) in assay [1]; 1.98 µM (inactive) in [2]; > 50 µM (inactive) in [3]; 6.73 µM (inactive) in assay [4]; 49.1 µM (inactive) in assay [5]; 5.73 µM (inactive) in assay [6]. Moreover, the GI50 is 12.9 µM (inactive) in assay [7]; > 39.9 µM (inactive) in [8]; > 50 µM (inactive) in assay [18]; 0.216 µM (active) in assay [9]; 12.6 µM (inactive) in assay [19]; 16.5 µM (inactive) in assay [10]. Moreover, the GI50 was > 50 µM (inactive) in assay [11]; 12.6 µM (inactive) in assay [12]; > 39.9 µM (inactive) in assay [20]; 3.86 µM (inactive) in assay [13]; 2.89 µM (inactive) in assay [14]; > 50 µM (inactive) in assay [15]. Moreover, the GI50 in assay [16] is 11.2 µM (inactive).

Regarding `Cc1[nH]c(-c2ccccc2)c(O)c1C(=O)OC1CC(C)CCC1C(C)C` (stereo unspecified), the GI50 was 14.8 µM (inactive) in assay [1]; 15.3 µM (inactive) in [2]; 11.7 µM (inactive) in assay [3]; 17.9 µM (inactive) in [4]; 13.4 µM (inactive) in assay [5]; 13.4 µM (inactive) in assay [6]. In addition, the GI50 in [7] is 17.6 µM (inactive); in assay [8], 11.1 µM (inactive); in assay [18], 13.4 µM (inactive); in [9] it was 16.9 µM (inactive); in assay [19], 16.6 µM (inactive); in assay [10] it was 15.7 µM (inactive). For the same compound, the GI50 in assay [11] is 11 µM (inactive); in assay [12], 16 µM (inactive); in assay [20], 3.91 µM (inactive); in assay [13], 14.9 µM (inactive); in [15], 18.6 µM (inactive); in assay [16] it was 13.3 µM (inactive). For the same compound, the GI50 in assay [17] is 18.7 µM (inactive).

For the compound `O=[N+]([O-])/C(C(Cl)=C(Cl)Cl)=C1\Nc2ccccc2O1`, the GI50 in assay [1] is 60.1 µM (inactive); in assay [2] it was 47.4 µM (inactive); in assay [3] it was > 100 µM (inactive); in assay [4] it was 15.7 µM (inactive); in assay [5], 90.6 µM (inactive); in [6] it was 67.3 µM (inactive). Besides, the GI50 in [7] was 12 µM (inactive); in [8], 29.6 µM (inactive); in assay [18] it was 33.8 µM (inactive); in [9], 27.5 µM (inactive); in assay [19], > 100 µM (inactive); in assay [10] it was 45.9 µM (inactive). In addition, the GI50 in assay [11] was 19.5 µM (inactive); in [12] it was 25.2 µM (inactive); in [20], 40.2 µM (inactive); in assay [13], 51.6 µM (inactive); in assay [14], > 100 µM (inactive); in assay [15] it was > 100 µM (inactive). The GI50 in assay [16] was 27.2 µM (inactive); in [17], 27.9 µM (inactive).

For `Nc1nc(SCCc2ccccc2)nc2nc3c(c(-c4ccccc4)c12)CCCC3`, the GI50 in assay [1] was > 100 µM (inactive); in assay [2], 66.1 µM (inactive); in assay [3], > 100 µM (inactive); in assay [4], 34.9 µM (inactive); in assay [5] it was > 100 µM (inactive); in assay [6], > 100 µM (inactive). Also, the GI50 in [8] was > 100 µM (inactive); in [18] it was 40.9 µM (inactive); in assay [19], > 10 µM (inactive); in [10], > 100 µM (inactive); in assay [11] it was > 100 µM (inactive); in assay [12], > 100 µM (inactive). For the same compound, the GI50 in [20] is > 100 µM (inactive); in assay [13] it was > 10 µM (inactive); in [14], > 100 µM (inactive); in assay [17] it was > 100 µM (inactive).

In the case of `Cc1cc([N+](=O)[O-])ccc1/N=N/C(=O)NNc1ccc([N+](=O)[O-])cc1C`, the GI50 in assay [2] was 13.7 µM (inactive); in [4], 17 µM (inactive); in [6], 17.3 µM (inactive); in [8] it was 15.5 µM (inactive); in assay [18], 14.1 µM (inactive); in assay [9] it was 15.3 µM (inactive). In addition, the GI50 in assay [19] is 13.6 µM (inactive); in assay [10], 16.7 µM (inactive); in [11], 20.1 µM (inactive); in assay [12], 14.7 µM (inactive); in assay [20], 3.18 µM (inactive); in [13], 11.2 µM (inactive). For the same compound, the GI50 in assay [14] is 15.9 µM (inactive); in assay [15], 13.6 µM (inactive); in assay [16], 25 µM (inactive); in [17], 17.3 µM (inactive).

On to `CC(Oc1ccc(Cl)cc1Cl)C(=O)NN1C(=O)CC(=O)NC1=S` (stereo unspecified), for which the GI50 in [1], in assay [2], in assay [3], in assay [4], in assay [5] and in assay [6] was > 100 µM (inactive) throughout. Moreover, the GI50 was 39.6 µM (inactive) in [7]; > 100 µM (inactive) in [18]; 82.8 µM (inactive) in [9]; > 100 µM (inactive) in assay [19]; > 100 µM (inactive) in assay [10]; > 100 µM (inactive) in [12]. Moreover, the GI50 in [20] is 76.7 µM (inactive); in [13], > 100 µM (inactive); in assay [14] it was 80 µM (inactive); in assay [15], 90.8 µM (inactive); in assay [16], > 100 µM (inactive); in assay [17], > 100 µM (inactive).

In the case of `CON(C)c1nc(N)c(C#N)c(C#N)c1C#N`, the GI50 in assay [1], in assay [2], in [3], in assay [4], in assay [5] and in assay [6] was > 10 µM (inactive) each time. The GI50 in assay [8] is > 10 µM (inactive); in assay [18], > 10 µM (inactive); in assay [9], > 10 µM (inactive); in assay [19], > 10 µM (inactive); in assay [10], > 10 µM (inactive); in assay [11], 4.02 µM (inactive). The GI50 in assay [12], in assay [20], in [13], in [14], in [15] and in [16] was > 10 µM (inactive) in each case. Also, the GI50 in assay [17] is > 10 µM (inactive).

Take `O=P(Nc1ccc(Cl)cc1)(Oc1ccccc1)N(CCCl)CCCl` (stereo unspecified): the GI50 is > 100 µM (inactive) in assay [1]; > 100 µM (inactive) in assay [2]; > 100 µM (inactive) in assay [3]; 33.7 µM (inactive) in assay [4]; > 100 µM (inactive) in [5]; > 100 µM (inactive) in assay [6]. Also, the GI50 in assay [7], in assay [8], in assay [18], in assay [9], in assay [19] and in assay [10] was > 100 µM (inactive) each time. In addition, the GI50 in assay [11], in assay [12], in [13], in assay [15], in assay [16] and in [17] was > 100 µM (inactive) throughout.

As for `O=C1C[C@H](c2ccccc2)C2(C(=O)c3ccccc3C2=O)[C@H](c2ccccc2)C1`, the GI50 in assay [1] is 88.7 µM (inactive); in assay [2], 24.3 µM (inactive); in assay [4], 27 µM (inactive); in assay [5], > 100 µM (inactive); in assay [6], > 100 µM (inactive); in [7] it was 32.2 µM (inactive). In addition, the GI50 in [8] is 61.2 µM (inactive); in assay [18] it was > 100 µM (inactive); in assay [9], > 100 µM (inactive); in [19], 63.1 µM (inactive); in assay [10], > 100 µM (inactive); in assay [11], > 100 µM (inactive). The GI50 in [12] is > 100 µM (inactive); in [13] it was 46.5 µM (inactive); in [15], > 100 µM (inactive); in assay [16], 91 µM (inactive); in assay [17], > 100 µM (inactive).

In the case of `C/C(=C\c1ccccc1)n1c(=O)cc(C)n1C`, the GI50 in assay [1], in [2], in assay [3], in assay [4], in assay [5] and in assay [6] was > 100 µM (inactive) throughout. Further, the GI50 in assay [7] is > 100 µM (inactive); in [8] it was 25.7 µM (inactive); in assay [18], > 100 µM (inactive); in [9], > 100 µM (inactive); in assay [19], > 100 µM (inactive); in assay [10], > 100 µM (inactive). Further, the GI50 in assay [11], in assay [12], in [20], in assay [13] and in assay [14] was > 100 µM (inactive) each time.
